Test results taken from PMC7316778 (Nature Communications, 2020).
“And” between values parts separate entries of the source, which are not always exact repeats. Equal values may be shown once. Read-outs that look alike come from different tables or passages of the source.

Key:
Experiment in all cases: SelectScreen kinase assay
FGFR3 K650E = FGFR3 K650E (Homo sapiens, UniProt P22607, K650E); conditions: for Inhibition at 1 µM (%): FGFR3 K650E, ZLYTE, ATP Km app
Method: (§1) Selectivity profiling assays were performed by the Invitrogen SelectScreen™ Services. […] The concentration of ATP was selected to be equal to the KM, unless indicated otherwise.

[1] = molecular target: PIK3CA/PIK3R1 (p110a/p85a) (Homo sapiens, UniProt P42336); conditions: for Inhibition at 1 µM (%): PIK3CA/PIK3R1 (p110 alpha/p85 alpha), Adapta, ATP Km app
Chain of PIK3CA/PIK3R1 (p110a/p85a) (P42336 whole entry): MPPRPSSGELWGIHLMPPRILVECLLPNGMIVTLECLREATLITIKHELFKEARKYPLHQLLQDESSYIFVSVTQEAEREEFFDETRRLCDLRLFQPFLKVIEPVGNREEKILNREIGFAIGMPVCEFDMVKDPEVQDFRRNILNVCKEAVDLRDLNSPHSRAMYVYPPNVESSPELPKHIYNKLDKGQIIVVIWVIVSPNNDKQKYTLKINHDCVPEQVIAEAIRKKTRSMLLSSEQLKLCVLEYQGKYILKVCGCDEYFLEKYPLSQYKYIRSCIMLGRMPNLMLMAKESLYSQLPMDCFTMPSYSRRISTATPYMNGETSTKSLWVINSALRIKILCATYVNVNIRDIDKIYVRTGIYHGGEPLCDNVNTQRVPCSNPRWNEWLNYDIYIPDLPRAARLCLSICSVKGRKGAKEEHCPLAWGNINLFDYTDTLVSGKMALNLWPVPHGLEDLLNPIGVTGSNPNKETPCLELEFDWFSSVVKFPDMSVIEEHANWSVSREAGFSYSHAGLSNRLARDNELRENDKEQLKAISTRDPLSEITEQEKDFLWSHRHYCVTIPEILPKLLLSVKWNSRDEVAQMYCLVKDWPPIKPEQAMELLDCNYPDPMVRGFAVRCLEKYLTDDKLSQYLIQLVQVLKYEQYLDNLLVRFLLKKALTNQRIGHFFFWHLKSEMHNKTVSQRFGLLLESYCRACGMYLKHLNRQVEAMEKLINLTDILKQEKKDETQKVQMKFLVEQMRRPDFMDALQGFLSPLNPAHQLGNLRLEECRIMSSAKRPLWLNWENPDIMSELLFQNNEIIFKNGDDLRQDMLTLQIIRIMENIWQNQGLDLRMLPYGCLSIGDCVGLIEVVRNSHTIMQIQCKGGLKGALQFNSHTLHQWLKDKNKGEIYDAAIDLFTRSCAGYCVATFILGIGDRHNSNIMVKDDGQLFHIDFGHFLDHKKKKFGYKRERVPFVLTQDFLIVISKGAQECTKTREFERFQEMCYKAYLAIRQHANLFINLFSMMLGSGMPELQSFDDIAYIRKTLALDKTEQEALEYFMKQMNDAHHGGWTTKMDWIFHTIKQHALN
Chain of PIK3CA/PIK3R1 (p110a/p85a) (P27986 whole entry partner): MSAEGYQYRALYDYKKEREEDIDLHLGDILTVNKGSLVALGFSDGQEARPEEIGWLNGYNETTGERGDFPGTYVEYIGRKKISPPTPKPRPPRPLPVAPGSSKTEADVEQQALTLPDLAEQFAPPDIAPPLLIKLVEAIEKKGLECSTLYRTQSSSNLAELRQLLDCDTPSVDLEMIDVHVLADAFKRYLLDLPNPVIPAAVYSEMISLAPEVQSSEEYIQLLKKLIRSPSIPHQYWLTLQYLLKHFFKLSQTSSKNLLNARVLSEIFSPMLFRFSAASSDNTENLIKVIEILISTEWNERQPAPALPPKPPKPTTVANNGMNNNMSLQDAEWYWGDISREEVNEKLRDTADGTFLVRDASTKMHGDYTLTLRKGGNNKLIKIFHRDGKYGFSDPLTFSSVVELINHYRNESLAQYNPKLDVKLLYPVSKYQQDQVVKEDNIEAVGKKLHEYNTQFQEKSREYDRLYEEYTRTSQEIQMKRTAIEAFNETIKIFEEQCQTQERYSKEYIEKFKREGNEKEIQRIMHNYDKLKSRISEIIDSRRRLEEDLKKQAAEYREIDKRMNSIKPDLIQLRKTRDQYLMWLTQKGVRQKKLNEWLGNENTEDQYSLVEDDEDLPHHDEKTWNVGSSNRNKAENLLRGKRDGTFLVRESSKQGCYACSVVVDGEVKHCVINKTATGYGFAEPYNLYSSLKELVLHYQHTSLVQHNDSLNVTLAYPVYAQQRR
Method: as §1

VRK2 = VRK2 (Homo sapiens, UniProt Q86Y07)
Chain of VRK2 (Q86Y07 whole entry): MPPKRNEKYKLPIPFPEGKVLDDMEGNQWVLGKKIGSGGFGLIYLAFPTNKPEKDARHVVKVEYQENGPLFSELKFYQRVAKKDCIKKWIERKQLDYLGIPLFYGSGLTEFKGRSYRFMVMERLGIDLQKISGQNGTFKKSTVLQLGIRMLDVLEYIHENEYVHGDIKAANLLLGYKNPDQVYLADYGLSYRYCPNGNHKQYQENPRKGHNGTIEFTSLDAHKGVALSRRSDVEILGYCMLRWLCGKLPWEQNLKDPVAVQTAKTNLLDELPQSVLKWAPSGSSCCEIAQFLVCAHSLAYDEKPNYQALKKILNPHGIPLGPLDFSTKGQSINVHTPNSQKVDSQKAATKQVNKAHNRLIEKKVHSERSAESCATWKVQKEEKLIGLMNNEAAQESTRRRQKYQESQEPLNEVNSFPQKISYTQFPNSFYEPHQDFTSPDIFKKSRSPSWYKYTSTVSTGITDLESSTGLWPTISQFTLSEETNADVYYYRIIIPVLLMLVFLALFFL
Method: as §1

STK17B (DRAK2) = molecular target: T1, STK17B (DRAK2) (Homo sapiens, UniProt O94768)
T1 sequence (O94768 1-372): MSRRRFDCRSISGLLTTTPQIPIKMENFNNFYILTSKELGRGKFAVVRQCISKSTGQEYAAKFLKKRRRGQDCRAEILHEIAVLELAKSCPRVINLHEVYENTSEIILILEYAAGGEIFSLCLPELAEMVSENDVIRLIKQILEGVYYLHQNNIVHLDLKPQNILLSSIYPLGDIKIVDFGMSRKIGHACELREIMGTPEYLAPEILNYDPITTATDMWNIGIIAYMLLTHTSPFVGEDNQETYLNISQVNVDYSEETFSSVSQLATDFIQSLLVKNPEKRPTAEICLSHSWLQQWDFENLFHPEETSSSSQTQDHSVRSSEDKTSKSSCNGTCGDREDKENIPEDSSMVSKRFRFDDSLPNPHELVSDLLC
Method: as §1

AKT3 (PKB gamma) = AKT3 (PKB gamma) (Homo sapiens, UniProt Q9Y243); conditions: for Inhibition at 1 µM (%): AKT3 (PKB gamma), ZLYTE, ATP Km app
Chain of AKT3 (PKB gamma) (Q9Y243 whole entry): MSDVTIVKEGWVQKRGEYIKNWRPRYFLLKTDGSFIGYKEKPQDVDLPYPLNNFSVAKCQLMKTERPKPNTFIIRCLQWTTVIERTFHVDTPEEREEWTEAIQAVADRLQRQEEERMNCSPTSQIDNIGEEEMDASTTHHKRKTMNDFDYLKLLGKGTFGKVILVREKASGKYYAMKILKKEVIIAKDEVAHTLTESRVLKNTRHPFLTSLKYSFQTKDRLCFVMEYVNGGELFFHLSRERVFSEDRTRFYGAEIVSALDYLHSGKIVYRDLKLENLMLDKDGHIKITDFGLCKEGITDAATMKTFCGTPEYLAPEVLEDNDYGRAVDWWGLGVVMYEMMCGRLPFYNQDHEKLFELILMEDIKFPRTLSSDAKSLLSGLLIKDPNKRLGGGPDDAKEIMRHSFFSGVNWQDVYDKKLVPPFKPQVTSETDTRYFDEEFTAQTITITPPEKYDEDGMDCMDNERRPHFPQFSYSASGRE
Method: as §1

MAP4K2 (GCK) = MAP4K2 (GCK) (Homo sapiens, UniProt Q12851)
Method: as §1

NEK9 = NEK9 (Homo sapiens, UniProt Q8TD19)
Method: as §1

PLK4 = molecular target: T2, PLK4 (Homo sapiens, UniProt O00444)
T2 sequence (O00444 1-970): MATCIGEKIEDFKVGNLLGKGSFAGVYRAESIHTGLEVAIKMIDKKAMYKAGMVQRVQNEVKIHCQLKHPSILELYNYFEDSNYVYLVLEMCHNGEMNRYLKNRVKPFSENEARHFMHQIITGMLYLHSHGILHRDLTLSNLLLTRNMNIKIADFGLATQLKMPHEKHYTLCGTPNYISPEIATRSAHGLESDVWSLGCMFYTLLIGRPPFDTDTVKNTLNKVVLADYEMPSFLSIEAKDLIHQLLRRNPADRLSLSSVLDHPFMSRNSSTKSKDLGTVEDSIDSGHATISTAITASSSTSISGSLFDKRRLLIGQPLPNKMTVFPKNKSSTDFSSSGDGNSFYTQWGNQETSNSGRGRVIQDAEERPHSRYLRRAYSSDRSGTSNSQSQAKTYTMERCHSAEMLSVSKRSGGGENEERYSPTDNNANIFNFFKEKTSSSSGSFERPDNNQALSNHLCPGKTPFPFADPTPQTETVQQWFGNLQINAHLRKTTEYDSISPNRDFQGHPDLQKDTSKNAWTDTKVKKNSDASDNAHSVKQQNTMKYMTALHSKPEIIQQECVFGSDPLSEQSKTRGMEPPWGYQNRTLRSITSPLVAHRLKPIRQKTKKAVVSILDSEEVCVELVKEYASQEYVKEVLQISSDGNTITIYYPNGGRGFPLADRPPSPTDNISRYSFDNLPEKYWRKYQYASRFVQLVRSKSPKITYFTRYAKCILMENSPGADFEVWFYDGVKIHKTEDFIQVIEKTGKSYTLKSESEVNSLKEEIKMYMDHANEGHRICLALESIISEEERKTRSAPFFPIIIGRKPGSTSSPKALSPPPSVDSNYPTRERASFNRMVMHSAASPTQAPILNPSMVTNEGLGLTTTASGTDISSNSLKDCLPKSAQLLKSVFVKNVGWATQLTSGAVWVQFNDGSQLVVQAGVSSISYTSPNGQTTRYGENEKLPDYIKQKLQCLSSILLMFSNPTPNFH
Method: as §1

SPHK2 = SPHK2 (Homo sapiens, UniProt Q9NRA0)
Chain of SPHK2 (Q9NRA0 whole entry): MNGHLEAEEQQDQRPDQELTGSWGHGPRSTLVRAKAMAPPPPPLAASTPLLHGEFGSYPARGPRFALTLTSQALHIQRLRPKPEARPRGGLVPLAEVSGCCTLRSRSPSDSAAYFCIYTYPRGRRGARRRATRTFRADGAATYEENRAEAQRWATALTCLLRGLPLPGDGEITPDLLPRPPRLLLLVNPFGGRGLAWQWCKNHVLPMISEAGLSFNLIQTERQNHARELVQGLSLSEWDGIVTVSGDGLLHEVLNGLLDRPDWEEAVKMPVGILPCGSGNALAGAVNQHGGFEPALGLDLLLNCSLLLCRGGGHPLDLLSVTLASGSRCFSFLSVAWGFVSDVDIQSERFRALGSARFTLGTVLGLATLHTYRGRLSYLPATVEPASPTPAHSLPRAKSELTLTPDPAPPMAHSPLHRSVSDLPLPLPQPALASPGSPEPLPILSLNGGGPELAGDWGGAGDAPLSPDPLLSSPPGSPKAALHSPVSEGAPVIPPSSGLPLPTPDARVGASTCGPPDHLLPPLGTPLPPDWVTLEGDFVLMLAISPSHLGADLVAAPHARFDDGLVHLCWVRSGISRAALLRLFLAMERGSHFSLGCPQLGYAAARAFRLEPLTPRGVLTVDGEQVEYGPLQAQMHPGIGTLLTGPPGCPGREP
Method: as §1

EPHA6 = EPHA6 (Homo sapiens, UniProt Q9UF33)
Method: as §1

MARK1 (MARK) = MARK1 (MARK) (Homo sapiens, UniProt Q9P0L2)
Chain of MARK1 (MARK) (Q9P0L2 whole entry): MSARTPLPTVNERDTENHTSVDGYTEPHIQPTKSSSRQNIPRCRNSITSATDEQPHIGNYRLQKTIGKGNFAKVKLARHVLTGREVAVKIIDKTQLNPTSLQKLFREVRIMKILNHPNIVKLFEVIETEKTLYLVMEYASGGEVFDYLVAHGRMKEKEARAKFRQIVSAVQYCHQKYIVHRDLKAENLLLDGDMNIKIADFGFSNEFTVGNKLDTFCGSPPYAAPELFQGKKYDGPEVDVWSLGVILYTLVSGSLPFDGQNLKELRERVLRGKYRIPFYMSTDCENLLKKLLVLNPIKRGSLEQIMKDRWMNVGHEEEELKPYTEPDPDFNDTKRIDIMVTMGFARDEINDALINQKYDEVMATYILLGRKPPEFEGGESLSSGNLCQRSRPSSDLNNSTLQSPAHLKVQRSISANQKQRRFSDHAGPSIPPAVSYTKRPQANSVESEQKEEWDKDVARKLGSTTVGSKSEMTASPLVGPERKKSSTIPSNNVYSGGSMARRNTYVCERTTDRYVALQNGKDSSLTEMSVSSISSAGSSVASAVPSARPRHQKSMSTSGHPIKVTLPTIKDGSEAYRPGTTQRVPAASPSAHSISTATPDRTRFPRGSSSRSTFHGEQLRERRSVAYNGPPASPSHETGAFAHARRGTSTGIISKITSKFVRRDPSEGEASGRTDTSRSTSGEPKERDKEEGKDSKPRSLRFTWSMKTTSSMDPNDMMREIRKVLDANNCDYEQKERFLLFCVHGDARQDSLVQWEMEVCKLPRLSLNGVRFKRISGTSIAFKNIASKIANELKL
Method: as §1

[2] = 1 h, 1 μM WEL028, 1 h preincubation
[3] = 1 µM, LanthaScreen Binding, listed as WEL028, 1 µM
[4] = read-out: Inhibition at 1 µM (%), 1 µM, LanthaScreen Binding

Chain of FGFR3 K650E (P22607 23-806 K650E): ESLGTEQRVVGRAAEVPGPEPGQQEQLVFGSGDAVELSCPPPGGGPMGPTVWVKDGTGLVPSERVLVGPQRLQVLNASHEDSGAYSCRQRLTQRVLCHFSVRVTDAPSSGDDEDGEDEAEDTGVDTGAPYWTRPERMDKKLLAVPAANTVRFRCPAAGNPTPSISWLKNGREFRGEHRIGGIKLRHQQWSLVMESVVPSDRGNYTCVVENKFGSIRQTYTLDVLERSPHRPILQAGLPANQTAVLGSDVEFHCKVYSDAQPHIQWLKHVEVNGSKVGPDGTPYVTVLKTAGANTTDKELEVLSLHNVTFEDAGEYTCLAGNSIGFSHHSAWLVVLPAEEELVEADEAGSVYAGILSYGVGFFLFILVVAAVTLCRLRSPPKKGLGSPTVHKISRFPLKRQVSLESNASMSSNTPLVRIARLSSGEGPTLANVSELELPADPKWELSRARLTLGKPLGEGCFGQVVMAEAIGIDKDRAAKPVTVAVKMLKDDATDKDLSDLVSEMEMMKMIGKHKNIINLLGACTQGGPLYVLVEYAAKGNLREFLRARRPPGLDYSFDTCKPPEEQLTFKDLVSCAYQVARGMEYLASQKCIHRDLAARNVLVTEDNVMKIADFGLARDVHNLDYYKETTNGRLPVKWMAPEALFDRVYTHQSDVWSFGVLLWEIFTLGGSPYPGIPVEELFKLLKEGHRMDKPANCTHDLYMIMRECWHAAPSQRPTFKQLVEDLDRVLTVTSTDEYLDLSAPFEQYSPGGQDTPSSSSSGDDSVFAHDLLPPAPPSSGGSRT

C#CCOc1ccc(Nc2ncc(Cl)c(Nc3ccccc3NC(=O)C=C)n2)c(OC)c1 [Compound 6]
inhibition at 1 µM (FGFR3 K650E; [2]): 8%
Inhibition at 1 µM (%) (FGFR3 K650E): 12%
Inhibition at 1 µM (%) (FGFR3 K650E; listed as WEL028, 1 µM): 4%
inhibition at 1 µM [1, 2]: 14%
Inhibition at 1 µM (%) [1]: 19%
Inhibition at 1 µM (%) ([1]; listed as WEL028, 1 µM): 9%
Inhibition at 1 µM (%) (VRK2; [3]): 19%
inhibition at 1 µM (VRK2; [2]): 16%
inhibition at 1 µM (VRK2; [4]): 14%
Inhibition at 1 µM (%) (STK17B (DRAK2); [3]): 8%
inhibition at 1 µM (STK17B (DRAK2); [2]): 9%
inhibition at 1 µM (STK17B (DRAK2); [4]): 9%
inhibition at 1 µM (AKT3 (PKB gamma); [2]): 1%
Inhibition at 1 µM (%) (AKT3 (PKB gamma)): 3%
Inhibition at 1 µM (%) (AKT3 (PKB gamma); listed as WEL028, 1 µM): 0%
inhibition at 1 µM (MAP4K2 (GCK); [2]): -12%
Inhibition at 1 µM (%) (MAP4K2 (GCK); MAP4K2 (GCK), 1 µM, ZLYTE, ATP Km app): -23%
inhibition at 1 µM (NEK9; [2]): -8%
Inhibition at 1 µM (%) (NEK9; NEK9, 1 µM, ZLYTE, ATP Km app, listed as WEL028, 1 µM): -7% and -9%
IC50 (PLK4): 25.1 nM
inhibition at 1 µM (PLK4; [2]): 98%
Apparent fold selectivity (PLK4; IC50 on that kinase divided by IC50 on FES^S700C): 6 fold
inhibition at 1 µM (PLK4; read-out: Inhibition at 1 µM (%), PLK4, 1 µM, LanthaScreen Binding): 99%
Inhibition at 1 µM (%) (SPHK2; 1 µM, Adapta, ATP 10, listed as WEL028, 1 µM): 5% and 1%
inhibition at 1 µM (SPHK2; [2]): 3%
inhibition at 1 µM (EPHA6; [2]): 6%
inhibition at 1 µM (EPHA6; read-out: Inhibition at 1 µM (%), EPHA6, 1 µM, LanthaScreen Binding): 5%
inhibition at 1 µM (MARK1 (MARK); [2]): 1%
Inhibition at 1 µM (%) (MARK1 (MARK); MARK1 (MARK), 1 µM, ZLYTE, ATP Km app, listed as WEL028, 1 µM): -1% and 4%
